Results reported in publication PMC9379584 (iScience, 2022).
Values joined by “and” are separate entries in the source; they are usually repeats but may differ in a detail not shown here. Equal values may be shown once. “Also recorded” adds a separate entry of the source. Read-outs that look alike come from different tables or passages of the source.

Assays:
D2R [1] = molecular target: T1, D2R (Homo sapiens, UniProt P14416); conditions: nanoBRET
Target sequence in this assay (P14416 whole entry): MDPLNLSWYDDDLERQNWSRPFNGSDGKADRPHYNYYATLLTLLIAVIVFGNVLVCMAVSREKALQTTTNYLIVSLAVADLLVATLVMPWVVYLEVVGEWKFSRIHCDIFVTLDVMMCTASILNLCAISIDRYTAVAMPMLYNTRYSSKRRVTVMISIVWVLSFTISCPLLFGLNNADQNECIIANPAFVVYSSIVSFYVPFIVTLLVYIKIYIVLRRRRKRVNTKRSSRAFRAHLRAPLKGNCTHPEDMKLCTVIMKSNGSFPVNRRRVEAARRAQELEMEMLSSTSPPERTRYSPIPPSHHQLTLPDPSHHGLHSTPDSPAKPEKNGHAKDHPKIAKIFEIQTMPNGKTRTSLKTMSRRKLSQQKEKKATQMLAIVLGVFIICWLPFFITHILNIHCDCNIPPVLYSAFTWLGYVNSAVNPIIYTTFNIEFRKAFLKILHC

D2R [2] = molecular target: T1, D2R; assay: cell-based; conditions: for EC50: nanoBRET; for Emax: HEK-293T
Target sequence in this assay (P14416 whole entry): as above

D2R [3] = molecular target: T1, D2R; conditions: cited from earlier work
Target sequence in this assay (P14416 whole entry): as above
Target sequence in this assay (P32121 whole entry partner): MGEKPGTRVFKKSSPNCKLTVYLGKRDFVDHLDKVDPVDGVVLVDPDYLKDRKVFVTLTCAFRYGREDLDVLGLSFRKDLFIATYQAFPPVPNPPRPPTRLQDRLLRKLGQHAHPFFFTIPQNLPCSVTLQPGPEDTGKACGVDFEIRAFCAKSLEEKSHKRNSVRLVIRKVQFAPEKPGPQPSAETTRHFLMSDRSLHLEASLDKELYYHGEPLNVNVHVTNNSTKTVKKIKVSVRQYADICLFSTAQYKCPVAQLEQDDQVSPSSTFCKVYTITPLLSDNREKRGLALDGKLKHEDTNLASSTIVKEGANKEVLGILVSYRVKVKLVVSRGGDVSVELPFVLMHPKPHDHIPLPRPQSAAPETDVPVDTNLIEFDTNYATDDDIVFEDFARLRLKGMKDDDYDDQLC

α2A-AR [4] = molecular target: T2, α2A-AR (Rattus norvegicus, UniProt P22909); format: cell-based; conditions: nanoBRET
T2 sequence (P22909 1-465): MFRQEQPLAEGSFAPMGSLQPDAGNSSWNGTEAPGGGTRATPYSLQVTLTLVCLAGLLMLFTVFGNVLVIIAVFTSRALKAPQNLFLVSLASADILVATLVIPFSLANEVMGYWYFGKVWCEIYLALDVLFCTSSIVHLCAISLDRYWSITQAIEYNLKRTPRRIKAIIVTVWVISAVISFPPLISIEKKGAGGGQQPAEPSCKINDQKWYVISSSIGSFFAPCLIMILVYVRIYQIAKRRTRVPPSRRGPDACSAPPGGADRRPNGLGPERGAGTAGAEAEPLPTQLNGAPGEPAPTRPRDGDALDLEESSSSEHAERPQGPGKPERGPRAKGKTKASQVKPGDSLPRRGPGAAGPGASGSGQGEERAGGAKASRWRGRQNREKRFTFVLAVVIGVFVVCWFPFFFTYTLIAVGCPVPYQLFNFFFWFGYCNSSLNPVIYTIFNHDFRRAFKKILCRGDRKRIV

D2R [5] = molecular target: T1, D2R; assay: Radioligand competition binding, [3H]-N-methylspiperone, HEK-293 membranes
Target sequence in this assay (P14416 whole entry): as the sequence (P14416 whole entry) above

D2R [6] = molecular target: T1, D2R; assay: cell-based
Target sequence in this assay (P14416 whole entry): as above
Target sequence in this assay (P32121 whole entry partner): as the sequence (P32121 whole entry partner) above

α2A-AR [7] = assay: α2A-AR internalization; format: cell-based; conditions: data not shown
mouse islets = assay: Glucagon secretion from mouse islets; format: cell-based; conditions: 25 mM glucose, 1 h
INS-1E cells [8] = assay: HTRF cAMP assay in INS-1E cells; format: cell-based, rat; conditions: for Emax, inhibition of cAMP production: normalized to DA's efficacy in parental INS-1E
D2R [9] = molecular target: T1, D2R
Target sequence in this assay (P14416 whole entry): as the sequence (P14416 whole entry) above

[10] = system: α2A-AR KO INS-1E-derived cell line; assay: HTRF cAMP assay in α2A-AR KO INS-1E-derived cells; format: cell-based, rat
β1-AR = conditions: ref Millan et al., 2002; cited from earlier work
[11] = system: α2A-AR KO INS-1E-derived cell line; assay: GSIS in α2A-AR knockout INS-1E-derived cell line; format: cell-based, rat
human islets [12] = assay: Glucagon secretion from human islets; format: cell-based; conditions: 25 mM glucose, 1 h
α2A-AR [13] = molecular target: T2, α2A-AR; assay: cell-based; conditions: HEK-293T
α2A-AR [14] = molecular target: T2, α2A-AR; format: cell-based; conditions: nanoBRET; remark: listed apart in the source
human islets [15] = assay: Insulin secretion from human islets; format: cell-based; conditions: 10 pM and 100 pM, versus vehicle
mouse pancreatic islets = assay: Glucose-stimulated insulin secretion; format: cell-based; conditions: for IC50: Mus musculus, Pancreatic islet, 1.5 h
INS-1E cells [16] = assay: Glucose-stimulated insulin secretion; format: cell-based, rat
[17] = EC50, Gαi2 recruitment to D2R, Gαi2
[18] = EC50, Gαi3 recruitment to D2R, Gαi3
[19] = EC50, GαoA recruitment to D2R, GαoA
[20] = percentage of recruitment relative to DA

## NC[C@H](O)c1ccc(O)c(O)c1 [NE, norepinephrine]
D2R [1]
  β-arrestin1 recruitment to D2R: negligible recruitment
D2R [2]; [17]
  EC50: 25.3 nM
D2R [2]; [18]
  EC50: 32600 nM
D2R [2]; [19]
  EC50: 3350 nM
D2R [2]; EC50, GαoB recruitment to D2R, GαoB
  EC50: 139 nM
D2R [3]
  pEC50, β-arrestin2 recruitment to D2R: 4.78 (16745.32) [3.62–5.93]
α2A-AR [4]
  β-arrestin1 recruitment to α2A-AR: negligible recruitment

## CC(C)C[C@H]1C(=O)N2CCC[C@H]2[C@]2(O)O[C@](NC(=O)[C@@H]3C=C4c5cccc6[nH]c(Br)c(c56)C[C@H]4N(C)C3)(C(C)C)C(=O)N12 [Bromocriptine]
D2R [5]
  Ki: 43.2 nM
D2R [6]
  EC50: 286 nM
D2R [6]; read-out: Emax, β-arrestin2 recruitment to D2R
  Emax: 60.9%
α2A-AR [7]
  internalization of α2A-AR following stimulation: no detectable internalization
Mouse islets; 10 pM
  decrease in secreted glucagon: 26.7%
Mouse islets; 100 pM
  decrease in secreted glucagon: 29.7%
INS-1E cells [8]
  Emax, inhibition of cAMP production: 35.10 [33.09–38.47] % DA
INS-1E cells [8]; listed as bromocriptine
  Emax, inhibition of cAMP production: 35.1 % DA
INS-1E cells [8]; read-out: IC50, inhibition of cAMP production, forskolin 5 μM, 1 h
  IC50: 10.3 nM
D2R [1]
  β-arrestin1 recruitment to D2R: negligible recruitment
D2R [9]; EC50 ratio versus DA
  higher potency than DA, Gαi1 recruitment to D2R: 4.5 fold
D2R [9]; EC50 ratio versus NE
  higher potency than NE, Gαi1 recruitment to D2R: 47.2 fold
D2R [9]; [20]
  Emax, Gαi1 recruitment to D2R: 60.03 [46.83–73.23] %
  Emax, GαoA recruitment to D2R: 109.13 [71.26–147.01] %
  Emax, GαoB recruitment to D2R: 96.05 [65.07–127.03] %
  Emax, Gαz recruitment to D2R: 66.51 [20.68–112.34] %
[10]; KO versus unmodified cells
  loss of potency in decreasing cAMP by α2-AR KO: ~120 fold
[10]; read-out: IC50, inhibition of cAMP production, α2A-AR KO
  IC50: 1200 nM
[10]; α2A-AR KO, normalized to DA's efficacy in parental INS-1E
  Emax, inhibition of cAMP production: 56.28 [5.32–107.26] % DA
β1-AR
  affinity for β1-AR, lower compared with D2R: ~120 fold
[11]; read-out: IC50, inhibition of GSIS, α2A-AR KO INS-1E-derived cells
  IC50: 6.67 nM
[11]; α2A-AR KO
  reduction of efficacy of GSIS inhibition versus parental INS-1E cells: 80.6%
Human islets [12]; 10 pM
  decrease in secreted glucagon: 30.8%
Human islets [12]; 100 pM
  decrease in secreted glucagon: 36.7%
α2A-AR [13]; read-out: Emax, Gαi1 recruitment to α2A-AR
  Emax: 15.4%
α2A-AR [13]; read-out: Emax, Gαi2 recruitment to α2A-AR
  Emax: 43.8%
α2A-AR [13]; read-out: Emax, Gαi3 recruitment to α2A-AR
  Emax: 12.7%
α2A-AR [13]; read-out: Emax, GαoA recruitment to α2A-AR
  Emax: 43%
α2A-AR [13]; read-out: Emax, GαoB recruitment to α2A-AR
  Emax: 40.3%
α2A-AR [13]; read-out: Emax, Gαz recruitment to α2A-AR
  Emax: 21.2%
α2A-AR [14]
  β-arrestin2 recruitment to α2A-AR: does not result in measurable recruitment; also recorded: Neither bromocriptine nor DA stimulation of α2A-AR caused significant β-arrestin2 receptor recruitment
D2R [2]; EC50, Gαi1 recruitment to D2R, Gαi1
  EC50: 104 nM
D2R [2]; [17]
  EC50: 21.6 nM
D2R [2]; [18]
  EC50: 84.3 nM
D2R [2]; [19]
  EC50: 0.0767 nM and 0.08 nM
D2R [2]; EC50, Gαz recruitment to D2R, Gαz
  EC50: 4.3 nM
D2R [2]; read-out: Emax, Gαi2 recruitment to D2R, percentage of recruitment relative to DA
  Emax: 89.3%
D2R [2]; read-out: Emax, GαoA recruitment to D2R, percentage of recruitment relative to DA
  Emax: 109%
D2R [2]; read-out: Emax, GαoB recruitment to D2R, percentage of recruitment relative to DA
  Emax: 96.1%
D2R [2]; read-out: Emax, Gαz recruitment to D2R, percentage of recruitment relative to DA
  Emax: 66.5%
D2R [2]; pEC50, GαoA recruitment to D2R, GαoA
  EC50: 0.0759 nM
D2R [2]; pEC50, GαoB recruitment to D2R, GαoB
  EC50: 0.269 nM
Human islets [15]
  effect on insulin secretion: not significantly altered; also recorded: did not significantly alter
Mouse pancreatic islets; read-out: IC50, inhibition of GSIS
  IC50: 15.8 nM
Mouse pancreatic islets; read-out: pIC50, inhibition of GSIS (converted)
  IC50: 15.8 nM
Mouse pancreatic islets; mouse islets, picomolar concentrations
  effect on insulin secretion: insufficient to modify insulin secretion
α2A-AR [4]
  β-arrestin1 recruitment to α2A-AR: negligible recruitment
INS-1E cells [16]; co-treatment with sulpiride (100 nM)
  decrease of efficacy at reducing GSIS versus bromocriptine alone: 66.7%
INS-1E cells [16]; co-treatment with yohimbine (100 nM)
  reduction of efficacy of GSIS inhibition versus bromocriptine alone: 66.5%
INS-1E cells [16]; read-out: IC50, inhibition of GSIS, INS-1E, 20 mM glucose, 90 min
  IC50: 14 nM
